Experimental data from patent US9597407B2, “Targeted antimicrobial moieties” (C3 Jian, Inc., priority 2009, dated 2017).
“Also recorded” adds a separate entry of the source.

Experiments:
[1] = system: bacteria; assay: Binding of targeting peptides to microorganisms (Table 3); conditions: peptide binding in aqueous buffers that varied depending on peptide solubility; preferably 1x PBS
[2] = system: microorganisms; assay: Morphology, biofilm and growth disruption by peptides (Table 5); assay type: cell-based; parameters: key: A: Peptide aggregates; B: Less hyphal formation; Clumps; Diffuse clumps and small polyps; F: Diffuse growth; H: Thin; I: Growth inhibition; Microcolony formation; Rippled; Small polyps; Thick; W: Halo formation on top, microlonies on bottom
Text: In certain embodiments peptides that induce alterations in phenotype or other biological activities can also be used as antimicrobial effector moieties.

Row | Substance | Target(s) (microorganisms bound by the targeting peptide) [1] | Organism, effect (morphology, biofilm and growth disruption) ([2]; E. faecalis) | Organism, effect (morphology, biofilm and growth disruption) ([2]; MRSA) | Organism, effect (morphology, biofilm and growth disruption) ([2]; S. epidermidis) | Organism, effect (morphology, biofilm and growth disruption) ([2]; S. pneumoniae) | Organism, effect (morphology, biofilm and growth disruption) ([2]; C. jejuni) | Organism, effect (morphology, biofilm and growth disruption) ([2]; E. coli) | Target(s) (microorganism bound by the targeting peptide) [1] | Organism, effect (morphology, biofilm and growth disruption) ([2]; C. jeikeium) | Organism, effect (morphology, biofilm and growth disruption) ([2]; B. subtilis) | Organism, effect (morphology, biofilm and growth disruption) ([2]; C. albicans)
1 | PF-429 (AATLICVGSGIMSSL; Peptide with targeting and/or antimicrobial activity) | S. epidermidis; also recorded: S. pneumoniae; also recorded: C. jeikeium | E. faecalis (C) | MRSA (C) | S. epidermidis (C) | S. pneumoniae (M) |  |  |  |  |  | 
2 | PF-430 (AVVCGYLAYTATS; Peptide with targeting and/or antimicrobial activity) | S. epidermidis; also recorded: M. luteus; also recorded: E. coli; also recorded: S. pneumoniae; also recorded: E. faecalis; also recorded: C. jeikeium; also recorded: C. jejuni |  | MRSA (M) | S. epidermidis (M) | S. pneumoniae (M) |  |  |  |  |  | 
3 | PF-433 (MRKEFHNVLSSGQLLADKRPARDYNRK; Peptide with targeting and/or antimicrobial activity) | S. epidermidis; also recorded: E. coli; also recorded: S. pneumoniae; also recorded: C. jeikeium |  |  |  | S. pneumoniae (H) |  |  |  |  |  | 
4 | PF-434 (GQLLADKRPARDYNRK; Peptide with targeting and/or antimicrobial activity) | S. epidermidis; also recorded: M. luteus; also recorded: S. pneumoniae; also recorded: C. jeikeium |  |  |  | S. pneumoniae (S) |  |  |  |  |  | 
5 | PF-584 (SYIKNLSNQKFLIAF; Peptide with targeting and/or antimicrobial activity) | S. epidermidis and M. luteus and P. mirabilis and C. albicans and MRSA and S. pneumoniae and E. faecalis and C. jeikeium | E. faecalis (D) | MRSA (D) | S. epidermidis (C) | S. pneumoniae (D) | C. jejuni (D) | E. coli (C) |  |  |  | 
6 | PF-585 (DYNHLLNVVQDWVNTN; Peptide with targeting and/or antimicrobial activity) | S. epidermidis and E. coli and C. albicans and MRSA and S. pneumoniae and C. jeikeium | E. faecalis (A) | MRSA (S) | S. epidermidis (S) | S. pneumoniae (R) | C. jejuni (R) |  |  |  |  | 
7 | PF-588 (ESVEAIKAKAIK; Peptide with targeting and/or antimicrobial activity) | S. epidermidis; also recorded: E. coli; also recorded: C. albicans; also recorded: E. faecalis; also recorded: C. jeikeium; also recorded: C. jejuni | E. faecalis (A) |  |  |  |  |  |  |  |  | 
8 | PF-590 (YYQAKLFPLL; Peptide with targeting and/or antimicrobial activity) | S. epidermidis; also recorded: M. luteus; also recorded: E. coli; also recorded: E. faecalis; also recorded: C. jeikeium |  |  |  |  | C. jejuni (R) |  |  |  |  | 
9 | PF-593 (MEISTLKKEKLHVKDELSQYLANYKK; Peptide with targeting and/or antimicrobial activity) | C. jeikeium | E. faecalis (A) |  |  |  |  |  |  |  |  | 
10 | PF-594 (IVSAIV; Peptide with targeting and/or antimicrobial activity) | C. jeikeium | E. faecalis (C) |  |  |  |  |  |  |  |  | 
11 | PF-596 (SKMWDKILTILILILELIRELIKL; Peptide with targeting and/or antimicrobial activity) | S. epidermidis and M. luteus and P. mirabilis and E. coli and P. aeruginosa and MRSA and E. faecalis | E. faecalis (D) | MRSA (D) | S. epidermidis (D) | S. pneumoniae (D) | C. jejuni (D) | E. coli (C) |  |  |  | 
12 | PF-598 (MKFMLEVRNKAISAYKEITRTQI; Peptide with targeting and/or antimicrobial activity) |  | E. faecalis (R) | MRSA (D) | S. epidermidis (R) | S. pneumoniae (R) | C. jejuni (R) | E. coli (C) | S. epidermidis and M. luteus and P. mirabilis and P. aeruginosa and C. albicans and MRSA and S. pneumoniae and C. jeikeium |  |  | 
13 | PF-599 (LFEIFKPKH; Peptide with targeting and/or antimicrobial activity) |  | E. faecalis (A) | MRSA (C) | S. epidermidis (M) | S. pneumoniae (R) | C. jejuni (R) |  | S. epidermidis and P. mirabilis and E. coli and C. albicans and MRSA and S. pneumoniae and C. jeikeium |  |  | 
14 | PF-601 (YRVTVKALE; Peptide with targeting and/or antimicrobial activity) |  | E. faecalis (A) |  |  |  | C. jejuni (A) |  | C. jeikeium |  |  | 
15 | PF-602 (LEKEKKEYIEKLFKTK; Peptide with targeting and/or antimicrobial activity) |  | E. faecalis (A) |  |  |  |  |  | P. mirabilis; also recorded: C. jeikeium |  |  | 
16 | PF-604 (LMEQVEV; Peptide with targeting and/or antimicrobial activity) |  | E. faecalis (A) |  |  |  |  |  | S. epidermidis; also recorded: C. albicans; also recorded: C. jeikeium |  |  | 
17 | PF-607 (YIESDPRKFDYIFGAIRDH; Peptide with targeting and/or antimicrobial activity) |  | E. faecalis (A) | MRSA (S) | S. epidermidis (M) | S. pneumoniae (R) | C. jejuni (R) |  | S. epidermidis and P. mirabilis and E. coli and MRSA and S. pneumoniae and C. jeikeium |  |  | 
18 | PF-609 (TEIKLDNNEYLVLNLDDILGILK; Peptide with targeting and/or antimicrobial activity) |  | E. faecalis (A) | MRSA (C) |  | S. pneumoniae (R) | C. jejuni (R) |  | P. mirabilis; also recorded: E. coli; also recorded: S. pneumoniae |  |  | 
19 | PF-613 (ADEFAKL; Peptide with targeting and/or antimicrobial activity) |  | E. faecalis (A) | MRSA (C) | S. epidermidis (R) |  |  |  | C. jeikeium |  |  | 
20 | PF-629 (chain 1 GLAAIATVFALY; chain 2 GLAAIATVFALY; Peptide with targeting and/or antimicrobial activity) |  | E. faecalis (R) | MRSA (D) | S. epidermidis (C) | S. pneumoniae (M) |  |  | S. epidermidis and P. aeruginosa and C. albicans and MRSA and S. pneumoniae and E. faecalis and C. jeikeium | C. jeikeium (R) |  | 
21 | PF-631 (chain 1 LIIYFSKTGNTARATRQI; chain 2 LIIYFSKTGNTARATRQI; Peptide with targeting and/or antimicrobial activity) |  | E. faecalis (H) |  |  | S. pneumoniae (I) |  |  | S. epidermidis and P. aeruginosa and C. albicans and MRSA and S. pneumoniae and E. faecalis and C. jeikeium |  |  | 
22 | PF-632 (chain 1 TTIQGVASLEKHGFRYTIIYPTRI; chain 2 TTIQGVASLEKHGFRYTIIYPTRI; Peptide with targeting and/or antimicrobial activity) |  | E. faecalis (D) | MRSA (D) | S. epidermidis (D) | S. pneumoniae (M) |  |  | S. epidermidis and P. aeruginosa and C. albicans and MRSA and S. pneumoniae and E. faecalis and C. jeikeium | C. jeikeium (D) | B. subtilis (H) | C. albicans (B)
